Assay results: patent publication US5134073A, “Microbiologically produced N-acetyl-2,3-didehydroleucine acylase” (Degussa Aktiengesellschaft, priority 1989, dated 1992)
“And” between values parts separate entries of the source, which are not always exact repeats. Identical values can stand only once.

Experiments:
Zoogloea ramigera ABI 1 = assay: Induction of N-acetyldehydroleucine acylase in agitated cultures, changing of the inductor; type: cell-based; settings: inductor 3 g/l; for Acylase activity after 60 hours of incubation as a function of the inductor: agitated culture, pH 7
Method: All raw extracts were tested at least with N-acetyldehydroleucine and N-acetyldehydroisoleucine but, in most cases, also with N-acetyldehydrovaline. […] The enzymatic reaction was stopped in the batches incubated at 30° C. by adding 0.25 ml color reagent (1 g/l 2,4-dinitrophenyl hydrazine in 2 N HCl). After further incubation at 30° C. for 10 minutes with N-acetyldehydroleucine as substrate or 25 minutes with the isoleucine or valine derivative, 1.5 ml 2,5 N NaOH was added.
The keto acid released by the enzymatic hydrolysis forms, together with the 2,4-dinitrophenyl hydrazine, a Schiff's base colored red in the alkaline whose absorption was measured in a spectral photometer at 442 nm against a batch without N-acetyldehydroamino acid (=enzyme blank). A blank reading was deducted from these extinction values which blank reading is obtained if the extinction value of a batch only with buffer (=buffer blank) is deducted from that of a batch with buffer and N-acetyldehydroamino acid but without raw extract (=substrate blank). The concentration of the product produced was determined with a calibrated reference for the corresponding keto acid. The enzyme activity is indicated in international units. One unit (U) corresponds to an amount of 1 μmole released keto acid per minute.
Different substances were added in a concentration of 3 g/l as inductors into agitated cultures with a medium of mineral salt solution (cf. Example 1) with 0.5 g/l yeast extract and 0.5 g/l peptone at pH 7. The technology for agitated cultures is described in Example 1 a).

ADL acylase = assay: Influence of glycine on the reaction rate; type: biochemical, Zoogloea ramigera
Method: The reaction of glycine in 0 to 1.2 molar concentration dissolved in 0.1 M tris/HCl buffer was determined under standard conditions (example 8a).

[1] = tested on: N-acetyldehydroleucine acylase; assay: Hydrolysis of other compounds by the acylase (TLC / amino acid analyzer); type: biochemical, Zoogloea ramigera
Method: A qualitative check was performed for 81 compounds to see whether they are accepted as substrate by the acylase. The test batches contained:
After 16 and 40 hours incubation at 25° C., specimens were taken from the batches, most of which specimens were analyzed in comparison to substrate standards by means of thin-layer chromatography (70% (v/v) ethanol as mobile solvent). The detection took place with ninhydrin spray reagent. A few specimens were tested in addition or alternatively with the amino acid analyzer.
The amino acids produced from the amino acid amides by means of the action of acylase were detected quantitatively with the amino acid analyzer.

[2] = tested on: N-acetyldehydroleucine acylase; assay: Acylase activity versus concentration of N-acetyldehydroamino acids (kinetic data); type: biochemical, Zoogloea ramigera
Method: The activity of the acylase was determined under standard conditions (cf. Example 8a)) with various N-acetyldehydroamino acids in concentrations of 0.1 to 300 mM. A second series of measurements with N-acetyldehydroleucinein the above-indicated concentration range was placed in 0.1 M tris/phosphoric acid buffer.
Reaction conditions: 0.1 M glycine, pH 9, 30° C.
Adaptation to the equation v = Vmax. · S/(KM + S +

[3] = tested on: N-acetyldehydroleucine acylase; assay: Hydrolysis of hydantoins by the acylase; type: biochemical, Zoogloea ramigera; settings: 25 mM substrate, 1 U/ml acylase, tris/phosphoric acid pH 9, 11.5 hours at 30° C.; ADL = 100%
Method: The test batches for the hydrolysis of hydantoins had the following composition:
25 mM substrate or buffer
50 mM tris/phosphoric acid buffer
Isopropylhydantoin, hydantoic acid and dihydrouracil were used as substrates. After 11.5 hours at 30° C., 175 μl 12% (w/v) trichloroacetic acid and 25 μl analytical reagent (10 % (w/v) […] in 6 N HCl) were added, precipitated protein centrifuged off in an Eppendorf table centrifuge and the absorption in the supernatants measured at 450 nm.

Row | SMILES | Acylase activity after 60 hours of incubation as a function of the inductor (Zoogloea ramigera ABI 1) [U/mg] | % Vmax ([2]; glycine, 0.1 M, pH 9, 30° C.) [%] | Km ([2]; glycine, 0.1 M, pH 9, 30° C.) | other results
1 | CC(=O)NC(Cc1c[nH]c2ccccc12)C(=O)O (racemic) [Ac-D,L-tryptophan] | 0.018 | – | – | –
2 | NCC(=O)O [Glycine, glycine] | – | – | – | Influence of activators on substrate splitting (ADL acylase): accelerates the substrate splitting as a function of the concentration; EC50 (ADL acylase; 0.1 M tris/HCl buffer, calculation according to Ingami and Murachi, read-out: Glycine concentration necessary for one-half the maximum reaction acceleration): 90 mM
3 | CC(=O)NC(Cc1ccc(O)cc1)C(=O)O (racemic) [Ac-D,L-tyrosine] | 0.011 | – | – | –
4 | CC(=O)NC(=CC(C)C)C(=O)O [ADL, N-acetyl-2,3-didehydroleucine] | 0.222 | 100 | 4.5 mM and 4.53 mM | rel. activity (%) ([1]; 50 mM test substrate, 0.1 M tris/HCl pH 9, 25° C., hydrolysis rate with N-acetyldehydroleucine = 100%): 100.0%; Induction capacity (Zoogloea ramigera ABI 1): highest induction capacity; Km ([2]; glycine, 0.1 M, pH 9, 30° C., listed as N-acetyl-2,3-didehydroleucine): 4.5 mM; % Vmax ([2]; tris-phosphoric acid 0.1 M): 62%; Km ([2]; tris-phosphoric acid 0.1 M): 7.01 mM
5 | CC(=O)NC(C(=O)O)=C(C)C [ADV, N-acetyl-2,3-didehydrovaline] | 0.121 | 23 | 20.9 mM | Substrate specificity: hydrolysis by the acylase [1]: hydrolyzes
6 | CC(=O)NC(C(=O)O)C(C)C (racemic) [Ac-D,L-valine] | 0.031 | – | – | –
7 | O=C1CCNC(=O)N1 [Dihydrouracil] | – | – | – | rel. activity (%) [3]: 0%
8 | CC(=O)NC(=Cc1ccccc1)C(=O)O [ACA, 2-acetylamino cinnamic acid] | 0.016 | 46 | 2.62 mM | Substrate specificity: hydrolysis by the acylase [1]: hydrolyzes; Induction capacity (Zoogloea ramigera ABI 1): only slightly active
9 | CC(=O)NC(Cc1ccccc1)C(=O)O (racemic) [Ac-D,L-phenylalanine] | 0.031 | – | – | –
10 | CC(C)C1NC(=O)NC1=O (stereo not shown) [Isopropy hydantoin] | – | – | – | rel. activity (%) [3]: 0%
11 | C=C(NC(C)=O)C(=O)O [ADA, 2-acetylamino acrylic acid] | – | 90 | 6.68 mM | Substrate specificity: hydrolysis by the acylase [1]: hydrolyzes
12 | CCC(C)=C(NC(C)=O)C(=O)O [ADI, N-acetyl-2,3-didehydroisoleucine] | 0.172 | 14 | 5.77 mM | Substrate specificity: hydrolysis by the acylase [1]: hydrolyzes
13 | CC[C@H](C)[C@H](NC(C)=O)C(=O)O [Ac-L-isoleucine] | 0.039 | – | – | –
14 | CC(=O)N[C@@H](CC(C)C)C(=O)O [Ac-L-leucine, N-acetyl-L-leucine] | 0.018 | – | – | –
